Test results from PubChem BioAssay (NCI).
Several values for one entry are separate records, joined by “and”; a condition that tells them apart may be missing. Identical values can stand only once.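 Step 1: Grow cells in 96-well plates. Step 2: Expose to compound for 48 hours at 5 concentrations. Step 3: Interpolate endpoints linearly; if unreached, use highest concentration. Here, GI50 denotes the concentration required for 50% inhibition of growth. The concentration for full growth arrest is given as TGI.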 Where a SMILES comes first, the peptide text is derived from it. Bridges are numbered along the chain shown (N, C = ends). Roman numbers before positions name the chains, in order. [ ]: non-standard residue; d: D form. The star is where a group is joined. Quinoxaline2carbonyl = O=C(c1cnc2ccccc2n1)*; NMeV = CN[CH](C(=O)O)C(C)C; NMeC = CN[CH](CS)C(=O)O

Experiments:
Experiment in all cases: NCI anticancer screen, dose series, 48 h
DMS 273 small cell lung = test system: DMS 273 small cell lung
SNB-78 CNS = test system: SNB-78 CNS
XF 498 CNS = test system: XF 498 CNS
KM20L2 colon = test system: KM20L2 colon
M19-MEL melanoma = test system: M19-MEL melanoma
RXF-631 renal = test system: RXF-631 renal
MDA-N = test system: MDA-N
HOP-18 NSCLC = test system: HOP-18 NSCLC
LXFL 529 NSCLC = test system: LXFL 529 NSCLC

Compound | TGI (DMS 273 small cell lung) [µM] | TGI (SNB-78 CNS) [µM] | TGI (XF 498 CNS) [µM] | TGI (KM20L2 colon) | TGI (M19-MEL melanoma) [µM] | TGI (RXF-631 renal) [µM] | TGI (MDA-N) [µM] | TGI (HOP-18 NSCLC) [µM] | TGI (LXFL 529 NSCLC) | further results
O=C(NC1CCCC1=O)c1ccccc1 (stereo not drawn) | > 100 | > 100 | > 100 | > 100 µM | > 100 | > 100 |  |  |  | 
CC1(C)CCC[C@]2(C)[C@@H](C=O)C(C=O)=CC[C@@H]12 |  |  |  |  |  |  | 26.4 |  |  | 
C/C1=C\[C@@H](O)C(=O)/C=C/C=C\c2csc(n2)[C@@H](C)NC(=O)C[C@@]2(CC1)S(=O)SC(=O)[C@]2(C)O (stereo partly drawn) | 0.106 | 0.0589 |  | 0.636 µM and 0.599 µM |  |  |  | 0.178 | 0.0333 µM and 0.0187 µM | 
C=C1CCC2[C@@H](CCC3[C@]2(C)CCC[C@]3(C)C(=O)OC)[C@@H]1CC=O (stereo partly drawn) | 50.1 | > 100 | 61.6 | 62.7 µM | 49 | > 100 |  | 86 | > 100 µM | GI50 (RXF-631 renal): 44.9 µM
COC12c3ccccc3-c3ccccc3C1[C@H]1C(=O)OC(=O)[C@H]12 (stereo partly drawn) |  |  |  |  |  |  | > 10 |  |  | 
Fc1cccc(C2SCc3nc4ccccc4n32)c1F (stereo not drawn) | 50.5 | > 100 |  | > 100 µM | > 100 | 36 |  | > 100 | > 100 µM | 
O=C([CH-]C(=O)c1ccccc1)c1ccccc1.O=C([CH-]C(=O)c1ccccc1)c1ccccc1.[OH-].[OH-].[Ti+4] |  |  |  | > 100 µM |  |  |  |  |  | GI50 (KM20L2 colon): > 100 µM
CN(C)c1ccc(/C=C2\C=Cc3ccccc32)cc1 | > 100 |  |  | > 100 µM | > 100 |  |  | > 100 | > 100 µM | 
c1ccc(P(=Nc2ccccc2N=P(c2ccccc2)(c2ccccc2)c2ccccc2)(c2ccccc2)c2ccccc2)cc1 | 10 | 19.9 | 0.543 | 10.3 µM | 12.1 | 6.64 |  | 0.844 | 12.1 µM | 
COc1cc2c(cc1OC)C1(c3ccc(Cl)cc3)ON=C(c3ccccc3)N1CS2 (stereo not drawn) | > 100 | > 100 |  | > 100 µM | > 100 | > 100 |  | > 100 | > 100 µM | 
C[CH2][Pb]([CH2]C)([CH2]C)[O]C(=O)c1ccc2ccccc2n1 |  |  |  |  |  |  | > 10 |  |  | GI50 (MDA-N): > 10 µM
COc1ccc(C=O)c(NC(=O)C(C)C)c1 | > 100 | > 100 | 68.9 | > 100 µM | 49.5 |  |  | 90.6 | > 100 µM | 
CC1(C)OC2C(=O)C=C(COCc3ccccc3)C2O1 (stereo not drawn) |  |  |  |  |  |  | > 100 |  |  | 
c1ccc2c3c([nH]c2c1)C1CCCN1CC3 (stereo not drawn) |  |  |  |  |  |  | > 10 |  |  | 
COc1cc2nc(NCCCCCNC(=O)c3ccco3)nc(N)c2cc1OC | > 100 | 89.5 |  | > 100 µM | 61.4 | 74.1 |  | > 100 |  | 
CC1(C)OCC(C(O)C2OC(C)(C)OC2/C=N\O)O1 (stereo not drawn) | > 100 | > 100 | > 100 | > 100 µM | > 100 |  |  | > 100 | > 100 µM | 
CCO/C=C1\N=C(c2ccccc2Br)OC1=O | > 100 | > 100 | > 100 | > 100 µM | > 100 |  |  |  | > 100 µM | 
N#Cc1ccc(N=Cc2c([O-])ccc3ccccc23)cc1.[C-]#[O+].[C-]#[O+].[Ir] |  |  | 12 | 29.5 µM |  |  |  | 8.51 | 4.32 µM | GI50 (XF 498 CNS): 2.36 µM; GI50 (HOP-18 NSCLC): 2.74 µM; GI50 (KM20L2 colon): 16 µM; GI50 (LXFL 529 NSCLC): 1.84 µM
COCCOCOc1ccc(OCOCCOC)c2c1C(=O)c1ccccc1C2=O | > 100 | > 100 | > 100 | > 100 µM | 39 |  |  | > 100 |  | 
CCOC1=C2N=C(Cc3ccccc3F)N=C2C(=O)c2ccccc21 | > 100 |  | > 100 | > 100 µM | > 100 |  |  | > 100 | > 100 µM | 
O=C(Cc1ccccc1)NN1C(=O)C(Cl)C1c1ccccc1O (stereo not drawn) | > 100 | > 100 | > 100 | > 100 µM | 89.6 |  |  | 61.2 | > 100 µM | 

Compound | TGI (DMS 273 small cell lung) [µM] | TGI (SNB-78 CNS) [µM] | TGI (XF 498 CNS) [µM] | TGI (KM20L2 colon) | TGI (M19-MEL melanoma) [µM] | TGI (RXF-631 renal) [µM] | TGI (MDA-N) [µM] | TGI (HOP-18 NSCLC) [µM] | TGI (LXFL 529 NSCLC) | further results
COc1cc(-c2cc(-c3cc([N+](=O)[O-])c(/C=N/NC(=O)c4ccncc4)o3)ccc2OC)ccc1C |  |  | > 100 | > 100 µM | > 100 | > 100 |  |  | > 100 µM | 
COC(=O)C(C)(C)N=CN(C)C | > 100 | > 100 | > 100 | > 100 µM | > 100 | > 100 |  | > 100 | > 100 µM | 
Cc1ccc2nc(NC(=O)/C(Cc3nc4ccc(Cl)cc4[nH]c3=O)=N\NC(C)(C)C)sc2c1 |  |  |  |  |  |  | > 100 |  |  | 
COC(CN1C=C(Sc2ccccc2)CC1)OC |  | > 100 | 66.3 | > 100 µM | 97.7 |  |  | > 100 |  | 
CSC(=S)N/N=C(\C)c1cccc(C)n1 |  |  |  |  |  |  | > 90 |  |  | 
CN(CC(N)=O)C(=O)N(CCCl)N=O |  |  |  |  |  |  | > 100 |  |  | 
CCCCCCCCCCCCCP(=O)(O)NCC(N)=O |  |  | > 100 | > 100 µM | > 100 | > 100 |  | 86.1 | > 100 µM | 
COC(=O)CC1NC(=O)C1C1(C)OCCO1 (stereo not drawn) | > 100 |  | > 100 | > 100 µM | > 100 |  |  |  | > 100 µM | 
Cc1cc(N(CCC#N)CCC#N)ccc1/C=C1/N=C(c2ccccc2)N(N)C1=O | > 100 |  | > 100 | > 100 µM | > 100 |  |  |  | > 100 µM | 
CCCCCCN(N)C(=O)CC#N | > 100 | > 100 |  | > 100 µM | > 100 | > 100 |  | > 100 | > 100 µM | 
Cc1ccc(NC(=O)c2ccccc2C(=O)O)cc1C |  |  |  |  |  |  | > 100 |  |  | 
Cn1cncc1CC1COC(=O)C1C(O)c1ccccc1 (stereo not drawn) |  |  |  |  |  |  | > 100 |  |  | 
COc1ccc(-c2cc(=O)c3c(OC)c(OC)c(OC)c(OC)c3o2)cc1 |  |  |  |  |  |  | > 100 |  |  | 
CC1(C)C2CCC13CS(=O)(=O)N1O[C@]13C(=O)O2 (stereo partly drawn) |  | > 100 |  | > 100 µM | > 100 | > 100 |  | > 100 | > 100 µM | 
CC1NC(=O)C(NC(=O)c2cnc3ccccc3n2)COC(=O)C(C(C)C)N(C)C(=O)C2CSSCC(C(=O)N(C)C(C(C)C)C(=O)OCC(NC(=O)c3cnc4ccccc4n3)C(=O)NC(C)C(=O)N2C)N(C)C1=O (stereo not drawn) (I: Quinoxaline2carbonyl-SA[NMeC][NMeV] / II: Quinoxaline2carbonyl-SA[NMeC][NMeV]; ester I:1-II:C, I:C-II:1; disulfide I:3-II:3; configuration not given here) |  |  |  |  |  |  | < 0.01 |  |  | 
N/N=C1\CC(=O)NC(=O)N1 |  |  |  |  |  |  | > 100 |  |  | 
Cc1cc2c(c(C(=O)O)c1C)-c1cccc(F)c1C2=O | > 100 | > 100 | > 100 | > 100 µM | > 100 | > 100 |  |  | > 100 µM | 
CC(C)c1c2[nH]c3ccccc3c2c(C(C)C)c2[nH]c3ccccc3c12 | > 100 | > 100 | > 100 | > 100 µM | > 100 | > 100 |  | > 100 | > 100 µM | 
Cc1ccc(S(=O)OC2C3CC4CC(C3)CC2C4)cc1 (stereo not drawn) | > 100 | > 100 | > 100 | > 100 µM | > 100 |  |  | > 100 | > 100 µM | 
CNS(=O)(=O)NNS(=O)(=O)c1ccc(Cl)cc1 |  |  |  | > 100 µM | > 100 | > 100 |  |  |  | 
